Reference: patent US12338199B2, “Bis-octahydrophenanthrene carboxamides and protein conjugates thereof” (REGENERON PHARMACEUTICALS, INC., priority 2017, dated 2025)
≈ marks a conversion by molar mass, not a printed value.

Key:
LXR beta = molecular target: T1, LXR beta (Homo sapiens, UniProt P55055); experiment: LanthaScreen TR-FRET LXR beta Coactivator Assay (cell-free binding); conditions: TR-FRET, 12-point curve; read-out: Cell free binding LXRβ IC50
T1 construct: LXR alpha or beta LBD-GST; purchased ThermoFisher PV4658
T1 sequence (P55055 222-460 limits assumed): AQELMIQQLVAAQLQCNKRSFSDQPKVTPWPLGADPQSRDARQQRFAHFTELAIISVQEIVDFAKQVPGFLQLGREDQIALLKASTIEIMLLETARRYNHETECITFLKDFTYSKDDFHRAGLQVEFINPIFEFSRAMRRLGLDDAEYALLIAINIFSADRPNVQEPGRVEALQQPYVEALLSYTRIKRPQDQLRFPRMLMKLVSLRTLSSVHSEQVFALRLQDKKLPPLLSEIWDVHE

LXR alpha = molecular target: T2, LXR alpha (Homo sapiens, UniProt Q13133); experiment: LanthaScreen TR-FRET LXR alpha Coactivator Assay (cell-free binding); conditions: TR-FRET, 12-point curve; read-out: Cell free binding LXRα IC50
T2 construct: LXR alpha or beta LBD-GST; purchased ThermoFisher PV4655
T2 sequence (Q13133 209-447 limits assumed): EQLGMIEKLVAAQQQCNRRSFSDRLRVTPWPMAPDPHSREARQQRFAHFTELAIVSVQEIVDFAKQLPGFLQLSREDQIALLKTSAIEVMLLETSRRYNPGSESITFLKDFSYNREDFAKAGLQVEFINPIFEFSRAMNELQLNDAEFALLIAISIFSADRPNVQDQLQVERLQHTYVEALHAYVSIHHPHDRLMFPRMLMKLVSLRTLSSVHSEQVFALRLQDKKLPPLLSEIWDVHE

LXRα = molecular target: T3, LXRα (Homo sapiens, UniProt Q13133); conditions: reported in Bioconjug Chem. 2015 26(11), 2216-22; cited from earlier work
T3 sequence (Q13133 1-447): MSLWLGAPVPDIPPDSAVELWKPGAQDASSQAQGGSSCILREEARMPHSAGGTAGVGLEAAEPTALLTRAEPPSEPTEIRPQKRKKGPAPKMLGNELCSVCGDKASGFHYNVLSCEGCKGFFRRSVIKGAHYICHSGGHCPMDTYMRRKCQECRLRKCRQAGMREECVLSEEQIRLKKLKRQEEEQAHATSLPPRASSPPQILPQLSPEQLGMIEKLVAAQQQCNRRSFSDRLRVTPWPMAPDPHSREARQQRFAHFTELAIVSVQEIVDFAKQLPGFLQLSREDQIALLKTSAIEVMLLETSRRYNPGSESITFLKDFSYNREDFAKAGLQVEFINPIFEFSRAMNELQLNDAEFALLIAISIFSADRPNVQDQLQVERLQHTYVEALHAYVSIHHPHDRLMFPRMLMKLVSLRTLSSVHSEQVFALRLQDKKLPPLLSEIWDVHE

LXRβ = molecular target: T4, LXRβ (Homo sapiens, UniProt P55055); conditions: reported in Bioconjug Chem. 2015 26(11), 2216-22; cited from earlier work
T4 sequence (P55055 1-460): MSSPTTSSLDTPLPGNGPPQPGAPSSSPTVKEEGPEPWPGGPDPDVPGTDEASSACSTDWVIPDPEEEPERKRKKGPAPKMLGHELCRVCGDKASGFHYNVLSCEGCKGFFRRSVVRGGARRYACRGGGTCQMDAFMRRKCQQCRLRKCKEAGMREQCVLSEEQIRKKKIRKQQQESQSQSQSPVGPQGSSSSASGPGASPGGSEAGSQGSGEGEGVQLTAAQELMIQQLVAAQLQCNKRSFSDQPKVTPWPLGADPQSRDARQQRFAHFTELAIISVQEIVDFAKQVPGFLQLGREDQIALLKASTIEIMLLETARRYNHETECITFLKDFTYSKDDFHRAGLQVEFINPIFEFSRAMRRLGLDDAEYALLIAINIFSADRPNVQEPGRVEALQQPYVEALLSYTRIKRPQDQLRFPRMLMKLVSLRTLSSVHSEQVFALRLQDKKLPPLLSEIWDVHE

THP1/LXR-Luc cells = experiment: THP1/LXR-Luc luciferase reporter bioassay; assay type: cell-based; conditions: Homo sapiens, THP-1, 48 hours
Outline: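 THP1 cells stably carrying an LXR-response-element firefly luciferase reporter were seeded at 30,000/well in RPMI/10% FBS and given 3-fold dilutions (100 nM to 0.01 nM) for 48 or 72 h. Luminescence was read with One-Glo. EC50 came from a 4-parameter fit of a 10-point curve, and fold activation was taken relative to maximal free-payload activation.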

Solubility in water = assay type: physicochemical; conditions: H2O
Protocol: To a solution of compound LP2-6 (4.3 mg, 7.8 μmol) in anhydrous DMF (1 mL) was added HATU (3.0 mg, 7.8 μmol). The mixture was stirred at 10° C. for 10 minutes before compound LP2-5 (15 mg, 6.5 μmol) and DIPEA (1.7 mg, 13 μmol) was added. The mixture was stirred at RT for 2 hours until LP2-5 was totally consumed, as monitored by LCMS. […]

SMILES | IC50 (LXR beta) [nM] | IC50 (LXR alpha) [nM] | binding affinity to LXRα (LXRα) [nM] | binding affinity to LXRβ (LXRβ) [nM] | EC50 (THP1/LXR-Luc cells; read-out: Activation of THP1/LXR-Luc cells: EC50) [nM] | Emax (THP1/LXR-Luc cells; relative to maximum activation of free payload 9d, read-out: Activation of THP1/LXR-Luc cells: Fold of activation) [%] | solubility (Solubility in water) [µg/mL]
CCc1cnc2c(C(F)(F)F)cccc2c1-c1cccc(Oc2cccc(S(=O)(=O)N(C)CCN)c2)c1 [Compound 31, N-(2-Aminoethyl)-3-(3-(3-ethyl-8-(trifluoromethyl)quinolin-4-yl)phenoxy)-N-methylbenzenesulfonamide, reference compound] | < 10 | < 10 | 1.5 | 12 | 10 to 100 | 25 to 75 | –
CC(C)[C@H](NC(=O)[C@@H](CCCCNC(=O)COC1CCCCCc2c1nnn2CC1OC2OC3C(CO)OC(OC4C(CO)OC(OC5C(CO)OC(OC6C(CO)OC(OC7C(CO)OC(OC8C(CO)OC(OC9C(CO)OC(OC1C(O)C2O)C(O)C9O)C(O)C8O)C(O)C7O)C(O)C6O)C(O)C5O)C(O)C4O)C(O)C3O)NC(=O)CCOCCOCCOCCOCCNC(=O)CCC(=O)N1Cc2ccccc2C#Cc2ccccc21)C(=O)N[C@@H](C)C(=O)Nc1ccc2c(c1)[C@@]1(C)CCC[C@](C)(C(=O)NC(=O)[C@@]3(C)CCC[C@]4(C)c5cc(O)ccc5CC[C@@H]34)[C@@H]1CC2 (stereo partly shown) [LP32] | – | – | – | – | – | – | 75 (≈ 26.3 µM)
